Test results from the supplement of paper PMC10627819.

Assays:
B. subtilis 168 [1] = assay: fitness (endpoint OD595 vs no drug) (fraction); higher = more growth
Method in brief: (§1)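 Bacterial fitness was scored as optical density at the stationary-phase transition relative to the robust mean of no-drug control wells. Scores are capped at 1. The growth data were OD595 readings every 30 min for 14 h at 37 °C, background-subtracted against the first reading, from 384-well plates inoculated at OD595 0.01 in TSB, LB Lennox or CY.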

S. aureus Newman [2] = assay: as above
Method in brief: as §1

S. pneumoniae D39V [3] = assay: as above
Method in brief: as §1

B. subtilis 168 [4] = assay: Bliss interaction score (quartile over a dose matrix) (fitness difference); higher = more antagonism (negative = synergy)
Method in brief: (§2)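 The Bliss score is observed minus expected fitness, where expected fitness is the product of the single-drug fitness values inferred from the combination data. Fitness is the OD595 at the onset of stationary phase over the plate's robust no-drug mean, capped at 1. Scores are summarised by quartiles over technical, biological and donor/recipient replicates.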

S. aureus DSM 20231 = assay: as above
Method in brief: as §2

S. aureus Newman [5] = assay: as above
Method in brief: as §2

S. pneumoniae D39V [6] = assay: as above
Method in brief: as §2
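For Bliss interaction score (quartile over a dose matrix) in this document: first quartile when negative (synergy) and third quartile when positive (antagonism).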
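For fitness (endpoint OD595 vs no drug) in this document: OD595 on entry to stationary phase over no-drug wells; at most 1.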

CO/N=C(\C(=O)N[C@@H]1C(=O)N2C(C(=O)O)=C(COC(C)=O)CS[C@H]12)c1csc(N)n1 [Cefotaxime] + CN[C@@H]1[C@H](O[C@H]2[C@H](O[C@H]3[C@H](O)[C@@H](O)[C@H](N=C(N)N)[C@@H](O)[C@@H]3N=C(N)N)O[C@@H](C)[C@]2(O)C=O)O[C@@H](CO)[C@H](O)[C@H]1O [Streptomycin]
fitness, one replicate
Conditions	first compound 0.0018 µg/mL	first compound 0.0035 µg/mL	first compound 0.007 µg/mL	first compound 0.00775 µg/mL	first compound 0.0155 µg/mL	first compound 0.031 µg/mL
B. subtilis 168 [1], partner 2 µg/mL	–	–	–	0.784	0.492	0.414
B. subtilis 168 [1], partner 4 µg/mL	–	–	–	0.0757	0.0218	0.0306
B. subtilis 168 [1], partner 8 µg/mL	–	–	–	0.0214	0.0302	0.0308
S. pneumoniae D39V [3], partner 16 µg/mL	0.92	0.881	0.654	–	–	–

fitness
Conditions	partner 1 µg/mL	partner 2 µg/mL	partner 4 µg/mL	partner 8 µg/mL
B. subtilis 168 [1], first compound 0.5 µg/mL	–	0.0795	0.043	0.0401
B. subtilis 168 [1], first compound 1 µg/mL	–	0.0611	0.0445	0.0309
B. subtilis 168 [1], first compound 2 µg/mL	–	0.061	0.048	0.0478
S. aureus Newman [2], first compound 0.078 µg/mL	0.761	0.757	0.72	–
S. aureus Newman [2], first compound 0.156 µg/mL	0.589	0.589	0.474	–
S. aureus Newman [2], first compound 0.312 µg/mL	0.382	0.29	0.155	–
S. aureus Newman [2], first compound 0.625 µg/mL	0.114	0.0719	0.0326	–
S. aureus Newman [2], first compound 1.25 µg/mL	0.0262	0.0178	0.0244	–
S. aureus Newman [2], first compound 2.5 µg/mL	0.0379	0.0307	0.0187	–
S. pneumoniae D39V [3], first compound 0.0018 µg/mL	–	0.966	0.996	0.964
S. pneumoniae D39V [3], first compound 0.0035 µg/mL	–	0.945	0.974	0.963
S. pneumoniae D39V [3], first compound 0.007 µg/mL	–	0.787	0.822	0.846

Conditions	Bliss interaction score
B. subtilis 168 [4]	-0.105
S. aureus DSM 20231	-0.0464
S. aureus Newman [5]	-0.0376
S. pneumoniae D39V [6]	0.0714

O=C(O)c1cn(C2CC2)c2cc(N3CCNCC3)c(F)cc2c1=O [Ciprofloxacin] + CN[C@@H]1[C@H](O)[C@H](NC)[C@H]2O[C@@]3(O)C(=O)C[C@@H](C)O[C@H]3O[C@@H]2[C@H]1O [Spectinomycin]
fitness
Conditions	partner 2 µg/mL	partner 4 µg/mL	partner 8 µg/mL	partner 16 µg/mL
B. subtilis 168 [1], first compound 0.0098 µg/mL	0.949	0.897	0.94	–
B. subtilis 168 [1], first compound 0.0195 µg/mL	0.694	0.741	0.789	–
B. subtilis 168 [1], first compound 0.039 µg/mL	–	0.257	–	–
S. aureus Newman [2], first compound 0.0375 µg/mL	–	0.643	0.666	0.622
S. aureus Newman [2], first compound 0.075 µg/mL	–	0.627	–	0.615
S. aureus Newman [2], first compound 0.15 µg/mL	–	–	0.0938	0.0557
S. pneumoniae D39V [3], first compound 0.125 µg/mL	–	0.919	0.913	0.706
S. pneumoniae D39V [3], first compound 0.25 µg/mL	–	0.797	0.795	–
S. pneumoniae D39V [3], first compound 0.5 µg/mL	–	–	–	0.446

fitness, one replicate
Conditions	first compound 0.078 µg/mL	first compound 0.156 µg/mL	first compound 0.25 µg/mL	first compound 0.312 µg/mL
S. aureus Newman [2], partner 16 µg/mL	0.203	0.0195	–	0.0278
S. aureus Newman [2], partner 32 µg/mL	0.116	0.0216	–	0.0094
S. aureus Newman [2], partner 64 µg/mL	0.0489	0.0519	–	0.102
S. pneumoniae D39V [3], partner 16 µg/mL	–	–	0.48	–

Conditions	Bliss interaction score
B. subtilis 168 [4]	0.0965
S. aureus DSM 20231	0.0785
S. aureus Newman [5]	-0.0629
S. pneumoniae D39V [6]	-0.0847
